In patent publication US20260224486A1, “DIANHYDROHEXITOL BASED IONIZABLE LIPIDS FOR NUCLEIC ACID DELIVERY” (SANOFI PASTEUR INC., priority 2023, published 2026):

Legend:
[1] = Lipid nanoparticle size and polydispersity index by dynamic light scattering (Malvern Zetasizer); assay type: physicochemical; settings: hEPO mRNA LNP, Process A, Cationic Lipid:DMG-PEG2000:Cholesterol:DOPE 40:1.5:28.5:30 mol %, N/P 4
From the text: The lipid nanoparticles in the examples of the present invention were formulated using Process A of WO 2018/089801 (see, e.g., Example 1 and FIG. 1 of WO 2018/089801). Process A (“A”) relates to a conventional method of encapsulating mRNA by mixing mRNA with a mixture of lipids, without first pre-forming the lipids into lipid nanoparticles. In an exemplary process, an ethanolic solution of a mixture of lipids (cationic lipid, phosphatidylethanolamine, cholesterol, and polyethylene glycol-lipid) at a fixed lipid to mRNA ratio were combined with an aqueous buffered solution of target mRNA at an acidic pH under controlled conditions to yield a suspension of uniform LNPs. After ultrafiltration and diafiltration into a suitable diluent system, the resulting nanoparticle suspensions were diluted to final concentration, filtered, and stored frozen at −80° C. until use.
(§1) Lipid nanoparticle formulations of Table 1 were prepared by Process A. All of the lipid nanoparticle formulations comprised hEPO mRNA and the different lipids (Cationic Lipid: DMG-PEG2000: Cholesterol: DOPE) in mol % ratios of 40:1.5:28.5:30 (Cationic Lipid: DMG-PEG2000: Cholesterol: DOPE).
The Polydispersity Index (Pdl) of lipid nanoparticles can be determined by diluting the formulation in 10% trehalose at about 0.1 mg/ml mRNA concentration and then measuring the size on Malvern zetasizer. The lipid nanoparticle size can be obtained with Malvern Zetasizer Nano-ZS.
Dynamic light scattering (DLS) measurements were performed using a Malvern Instruments Zetasizer with a backscattering detector angle of 173° and a 4-mW, 633-nm He—Ne laser (Worcestershire, UK). The samples were analyzed by diluting in 10% Trehalose and measuring the size and Poly dispersity Index (PDI) in an optical grade polystyrene cuvette.

[2] = mRNA encapsulation efficiency of lipid nanoparticles (RiboGreen assay); assay type: physicochemical; settings: hEPO mRNA LNP, Process A, Cationic Lipid:DMG-PEG2000:Cholesterol:DOPE 40:1.5:28.5:30 mol %, N/P 4
From the text: In embodiments, the lipid nanoparticle encapsulates a nucleic acid, optionally an mRNA encoding a peptide or protein. In embodiments, the lipid nanoparticle encapsulates an mRNA encoding a peptide or protein, optionally for use in a vaccine. In embodiments, the peptide is an antigen. As used herein, the phrase “encapsulation percentage” refers to the fraction of therapeutic agent (e.g. mRNA) that is effectively encapsulated within a liposomal-based vehicle (e.g. a lipid nanoparticle) relative to the initial fraction of therapeutic agent present in the lipid phase. In embodiments, the lipid nanoparticles have an encapsulation percentage for mRNA of at least 50%. In embodiments, the lipid nanoparticles have an encapsulation percentage for mRNA of at least 55%. In embodiments, the lipid nanoparticles have an encapsulation percentage for mRNA of at least 60%. In embodiments, the lipid nanoparticles have an encapsulation percentage for mRNA of at least 65%. In embodiments, the lipid nanoparticles have an encapsulation percentage for mRNA of at least 70%. In embodiments, the lipid nanoparticles have an encapsulation percentage for mRNA of at least 75%. In embodiments, the lipid nanoparticles have an encapsulation percentage for mRNA of at least 80%. In embodiments, the lipid nanoparticles have an encapsulation percentage for mRNA of at least 85%. In embodiments, the lipid nanoparticles have an encapsulation percentage for mRNA of at least 90%. In embodiments, the lipid nanoparticles have an encapsulation percentage for mRNA of at least 95%. In embodiments, the encapsulation percentage is calculated by performing the Ribogreen assay (Invitrogen) with and without the presence of 0.1% Triton-X 100.
as §1
The RiboGreen Assay is a fluorescence-based method for the determination of mRNA concentration (Total and Free) and % encapsulation using Quant-iT™ RiboGreen® RNA reagent in mRNA containing lipid nanoparticles.
• To each of the standards (Blank, mRNA-1, mRNA-2. mRNA-3, mRNA-4, mRNA-5) and Samples (free mRNA and total mRNA), add 1.0 mL of 200-fold Ribogreen Reagent Solution and gently mix by inversion. This is a 2× Dilution. • Add 200 μL of each standard and sample in triplicate using the reverse pipetting technique in a 96-well Costar Black with Clear Background Plate. Ensure no bubbles are present in the plate before the fluorescence reading. • Read the fluorescence signal using the below instrument parameters: • Read Type: Fluorescence, Bottom Read • Excitation: 485 nm; Cut-off: 515 nm; Emission: 530 nm • Plate Type: 96-well Costar Black with Clear Background
The average fluorescence from each calibration standard is plotted against the concentration to generate a linear calibration curve using the MS Excel software. The coefficient of determination (R^2) of calibration curve must be R^2>0.99.
[formula] • Where, • Y=average fluorescence value • m: slope • x: concentration (pg/mL) • c: y-intercept • Using the linear equation, calculate the concentration of free and total mRNA concentration in the test sample by replacing the y value in the equation with the average fluorescence value of each respective sample • Once the concentration is determined, the actual concentration in the sample can be back-calculated by multiplying the concentration in the test sample with the dilution factor (DF) as follows:
[formula] [formula] • Concentration of encapsulated mRNA can be determined by subtracting the concentration of free mRNA from the total mRNA. • % Encapsulation can then be calculated by taking the ratio of encapsulated mRNA over total mRNA and multiplying the result with 100.

BALB/cJ mice = test: Delivery of hEPO mRNA by intramuscular administration of LNPs; serum hEPO by ELISA; assay type: in vivo, Mouse; settings: for hEPO 6 Hr (ng/ml) Mean: Table 2, isosorbide-derived lipids
Method: In summary, lipid screening studies were conducted with female BALB/cJ mice 6-8 weeks of age. Mice were dosed with 0.1 μg in 30 μL of LNPs by a single intramuscular (IM) injection into the gastrocnemius leg muscle. Blood samples were taken 6 and 24 hours post injection and hEPO levels were measured in the blood serum of the mice using an ELISA assay according to the manufacture's protocol.
Treatment Regimen: On Day 1, animals from Groups 1-33 were dosed via intramuscular injection while under light isoflurane anesthesia according to the study design table above. Animals in Groups 1-33 were injected with EPO mRNA LNPs in the right leg only. Groups 1 and 17 animals received MC3 control.
Interim Sample Collections: Interim whole blood (^~50 μL) was collected by tail snip or saphenous vein at 6 and 24 hours post dose administration (±5%). Blood samples were collected into serum separator tubes, allowed to clot at room temperature for at least 10 minutes, centrifuged at ambient temperature at minimum 1000 g for 10 minutes and the serum was extracted. All serum samples were stored at nominally −70° C. until analysis hEPO by the Testing Facility. The results of the EPO analysis were included in the Data Submission.
Terminal Blood Collections: Whole blood was collected via cardiac puncture into serum separator tube, allowed to clot at room temperature for at least 10 minutes, centrifuged at ambient temperature at minimum 1000 g for 10 minutes and the serum was extracted. Serum samples were stored at nominally −70° C. until analyzed for hEPO by the Test Facility.
ELISA Assay: Human erythropoietin (hEPO) levels in sera samples were determined by ELISA kit (R&D systems, Cat #DEP-00) according to the manufactory instruction and the results were included in the Data Submission. The “shaker” protocol was used. The serum samples were diluted between 1:40 and 1:100.

[3] = mouse serum 6 hours post single IM injection of 0.1 μg hEPO mRNA LNP

| SMILES | Polydispersity Index (PDI) [1] | Size (nm) [1] [nm] | Encapsulation efficiency (EE) % [2] [%] | hEPO 6 Hr (ng/mL) Mean (BALB/cJ mice; Table 3, isomannide-derived lipids, mouse serum 6 hours post single IM injection of 0.1 μg hEPO mRNA LNP) [ng/mL] | hEPO 24 Hr (ng/ml) Mean (BALB/cJ mice; Table 3, isomannide-derived lipids, mouse serum 24 hours post single IM injection of 0.1 μg hEPO mRNA LNP) [ng/mL] | hEPO 6 Hr (ng/ml) Mean (BALB/cJ mice; [3]) [ng/mL] |
| --- | --- | --- | --- | --- | --- | --- |
| CCCCCCCCCCC(O)CN(CCCC(=O)O[C@@H]1CO[C@H]2[C@@H]1OC[C@H]2OC(=O)CCCN(CC(O)CCCCCC(=O)OC(CCCCCCCC)CCCCCCCC)CC1CCCC(=O)O1)CC(O)CCCCCCCCCC (stereo partly shown) [Compound 19] | 0.13 | 94 | 74 | 10.7 | 5.35 |  |
| CCCCCCCCC(O)CN(CCCC(=O)O[C@H]1CO[C@H]2[C@@H]1OC[C@H]2OC(=O)CCCN(CC(O)CCCCCCCC)CC(O)CCCCCCCC)CC(O)CCCCCCCC (stereo partly shown) [Compound 20] | 0.13 | 95 | 89 |  |  | 25.2 |
| CCCCCCCCC(O)CN(CCCCC(=O)O[C@H]1CO[C@H]2[C@@H]1OC[C@H]2OC(=O)CCCCN(CC(O)CCCCCCCC)CC(O)CCCCCCCC)CC(O)CCCCCCCC (stereo partly shown) [Compound 21] | 0.139 | 78 | 96 |  |  | 31.6 |
| CCCCCCCCCCC(O)CN(CCCC(=O)O[C@H]1CO[C@H]2[C@@H]1OC[C@H]2OC(=O)CCCN(CC(O)CCCCCCCC)CC(O)CCCCCCCC)CC(O)CCCCCCCCCC (stereo partly shown) [Compound 22] | 0.1 | 75 | 91 |  |  | 34.1 |
| CCCCCCCCCCC(O)CN(CCCCC(=O)O[C@@H]1CO[C@H]2[C@@H]1OC[C@@H]2OC(=O)CCCN(CC(O)CCCCCCCCCC)CC(O)CCCCCCCCCC)CC(O)CCCCCCCCCC (stereo partly shown) [Compound 25] | 0.13 | 81 | 96 |  |  | 42.7 |
| CCCCCCCCCCCCC(O)CN(CCCCC(=O)O[C@H]1CO[C@H]2[C@@H]1OC[C@H]2OC(=O)CCCCN(CC(O)CCCCCCCCCCCC)CC(O)CCCCCCCCCCCC)CC(O)CCCCCCCCCCCC (stereo partly shown) [Compound 28] | 0.103 | 91 | 94 |  |  | 40.2 |
| CCCCCCCCCCC(O)CN(CCCC(=O)O[C@H]1CO[C@H]2[C@@H]1OC[C@H]2OC(=O)CCCN(CC(O)CCCCCCCCCC)CC(O)CCCCCCCCCC)CC(O)CCCCCCCCCC (stereo partly shown) [Compound 29] | 0.13 | 126 | 96 |  |  | 38.4 |
| CCCCCCCCCCCCCCCCC(O)CN(CCCC(=O)O[C@H]1CO[C@H]2[C@@H]1OC[C@H]2OC(=O)CCCN(CC(O)CCCCCCCCCCCCCCCC)CC(O)CCCCCCCCCCCCCCCC)CC(O)CCCCCCCCCCCCCCCC (stereo partly shown) [Compound 30] | 0.16 | 106 | 94 |  |  | 25.2 |
| CCCCCCCCCCCCCCCCC(O)CN(CCCCC(=O)O[C@@H]1CO[C@H]2[C@@H]1OC[C@H]2OC(=O)CCCCN(CC(O)CCCCCCCCCCCCCCCC)CC(O)CCCCCCCCCCCCCCCC)CC(O)CCCCCCCCCCCCCCCC (stereo partly shown) [Compound 31] | 0.12 | 98 | 97 |  |  | 14.1 |
| CCCCCCCCCCCOC(=O)CCCC(O)CN(CCCC(=O)O[C@H]1CO[C@H]2[C@@H]1OC[C@H]2OC(=O)CCCN(CC(O)CCCCCC(=O)OC(CCCCCCCC)CCCCCCCC)CC(O)CCCC(=O)OCCCCCCCCCCC)CC(O)CCCCCC(=O)OC(CCCCCCCC)CCCCCCCC (stereo partly shown) [Compound 33] | 0.11 | 109 | 99 |  |  | 17.6 |
| CCCCCC/C=C\COC(=O)CCCCCC(O)CN(CCCC(=O)O[C@@H]1CO[C@H]2[C@@H]1OC[C@@H]2SC(=O)CCCN(CC(O)CCCCCCCCCC)CC(O)CCCCCCCCCC)CC(O)CCCCCC(=O)OC/C=C\CCCCCC (stereo partly shown) [Compound 34] | 0.1 | 84 | 92 |  |  | 33.8 |
| CCCCCC/C=C\COC(=O)CCCCCC(O)CN(CCCC(=O)O[C@H]1CO[C@H]2[C@@H]1OC[C@H]2OC(=O)CCCN(CC(O)CCCCCC(=O)OC/C=C\CCCCCC)CC(O)CCCCCC(=O)OC/C=C\CCCCCC)CC(O)CCCCCC(=O)OC/C=C\CCCCCC (stereo partly shown) [Compound 35] | 0.08 | 92 | 82 |  |  | 28.5 |
